Test results published in patent US8021570B2, “β-peptide lyotropic liquid crystals and methods of manufacture and use thereof” (Wisconsin Alumni Research Foundation, priority 2006, dated 2011).

How the values were obtained:
[1] = Optical microscopy of aqueous β-peptide solutions between crossed polarizing filters (birefringence = LC phase formation); type: physicochemical; settings: aqueous solution
Excerpt: The inventors used optical microscopy for initial evaluation of aqueous solutions of 1-5. For each β-peptide, aqueous solutions of varying concentration were drawn into microcapillaries and examined between crossed polarizing filters at room temperature (FIGS. 1 and 3). In such experiments, the observation of birefringence is taken as evidence of LC phase formation. […] Increasing β-peptide length by one triad, to generate 3, led to LC behavior at lower concentrations, as shown by the image obtained for a 10 wt % sample (61 mM, FIG. 1C). […] Thus, self-assembly of the chiral helix formed by 3 induced a helical ordering of molecules in the LC phase whereas the two-turn, chiral helix formed by 2 was unable to induce this higher ordered phase.
β-Peptides were weighed into glass vials, diluted to the desired concentration with water, and left on an oscillatory shaker overnight to ensure dissolution. β-peptide solutions were then drawn into a 2 μL microcapillary (Drummond), and the ends were sealed with a high viscosity vacuum grease (Dow-Corning) Microcapillaries were placed on a glass slide and imaged on an Olympus BX-60 microscope (Tokyo, Japan) in transmission mode between crossed polarizing filters using a digital camera (Olympus C2020 Zoom). […] Temperature was recorded from a thermostat but was not further calibrated.
Materials and Methods • Materials. […] Solvent A and Solvent B for RP-HPLC were 0.1% trifluoroacetic acid (TFA) in Millipore water and 0.1% TFA in acetonitrile, respectively. β-peptide purity was assessed using a Vydac C18 analytical column using a flow rate of 1 mL/min from 10-60% B over 50 minutes monitoring at 220 and 273 nm. • MALDI-TOF-MS (matrix-assisted laser desorption-ionization-time-of-flight mass spectrometry) data were collected on a Bruker REFLEX II spectrometer with a 337 nm laser using α-cyano-4-hydroxycinnamic acid as matrix. […] To assess the upper limit of concentration, a 1 μL droplet of a concentrated peptide solution was allowed to slowly evaporate while being monitored for birefringence. […]

streptavidin = biological target: T1, streptavidin (Streptomyces avidinii, UniProt P22629); assay: Stability of streptavidin immobilized on gold slides after exposure to a liquid crystal (binding of fluorescently labeled biotin); settings: 2 hrs incubation
T1 construct: purchased Pierce Biotechnology
T1 sequence (P22629 25-183): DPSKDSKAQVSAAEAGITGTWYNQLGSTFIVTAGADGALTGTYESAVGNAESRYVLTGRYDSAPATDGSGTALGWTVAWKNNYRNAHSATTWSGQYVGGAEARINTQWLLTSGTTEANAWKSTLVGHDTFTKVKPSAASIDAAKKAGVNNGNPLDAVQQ

In the case of `NCCCC[C@@H](CC(N)=O)NC(=O)C[C@H](Cc1ccccc1)NC(=O)[C@H]1CCCC[C@@H]1NC(=O)C[C@H](CCCCN)NC(=O)C[C@H](Cc1ccccc1)NC(=O)[C@H]1CCCC[C@@H]1NC(=O)C[C@H](CCCCN)NC(=O)C[C@H](Cc1ccccc1)NC(=O)[C@H]1CCCC[C@@H]1NC(=O)C[C@@H](N)Cc1ccc(O)cc1` [β-peptide iso-A], the solubility limit [1] was > 10 wt %.
For “β^3-hTyr-(ACHC-β^3-hPhe-β^3-hLys)3 scram”, the “LC phase formation / birefringence (result in words)” value [1] was “strong birefringence”.
In the case of “pentanoyl-NH-β^3hTyr-(ACHC-ACHC-β^3hLys)3 [pentanoyl-β^3hTyr-(ACHC-ACHC-β^3hLys)3]”, the “state of immobilized streptavidin after incubation with the liquid crystal” value (“state of immobilized streptavidin” below) (streptavidin; 1 wt %) was “streptavidin is still able to bind biotin”.
With “β^3-hTyr-(ACHC-ACHC-β^3-hLys)2 [β-peptide 2]” the “type of LC phase suggested by optical texture” value ([1]; room temperature, 2 at 19 wt %, 3 at 10 wt %) was “nematic”.
With `O=C([O-])c1cc(=O)c2c(OCC(O)COc3cccc4oc(C(=O)[O-])cc(=O)c34)cccc2o1.[Na+].[Na+]` [disodium chromoglycate] the “state of immobilized streptavidin” value (streptavidin; 16 wt %) was “streptavidin is still able to bind biotin”.
With `CCCCCCCCCCOS(=O)(=O)[O-].[Na+]` [sodium decyl sulfate] the “state of immobilized streptavidin” value (streptavidin; 32 wt %) was “the protein is denatured”.
